Laboratory results published in US6461619B1 (Somerset Pharmaceuticals, Inc., priority 1998, dated 2002).
Structures can show the parent of a compound that is named as a salt.

What was measured:
[1] = system: second-degree burn wounds; assay: second-degree burn wound model, epidermal migration (epithelization) assessment; assay type: in vivo, Swine; settings: for Percent of wounds completely epithelized / number of wounds healed (completely epithelized) over the number of wounds assessed: pig
Method: The ability of selegiline and desmethylselegiline to assist in the healing of burns was tested using a second-degree burn wound model. In second-degree burns, the entire surface of the epidermis is destroyed. An epidermal covering is regenerated from the remaining epithelial and epidermal cells adjacent to the burns. This phase of the healing process is called epithelization.
Swine were used for the experimental research animal because their skin has many morphological similarities to human skin. Seven young female specific pathogen free (SPF:Ken-O-Kaw Farms, Windsor, Ill.) pigs weighing 25-30 kg were kept in house for two weeks prior to initiating the experiment. These animals were fed a basal diet ad libitum and housed individually in facilities with controlled temperature (19-21° C.) and lights (12 h/12 h LD).
Experimental animals were clipped with standard animal clippers on the day of the experiment. The skin on the back and both sides of the animal was prepared for wounding by washing with a non-antibiotic soap and sterile water. Each animal was anesthetized i.m. with ketamine-HCl (20 mg/kg), xylazine (2 mg/kg) and atropine (0.05 mg/kg), followed by mask inhalation of an isoflurane and oxygen combination. Five specifically designed cylindrical brass rods weighing 358 g each were heated in a boiling water bath to 100° C. A rod was removed from the water bath and wiped dry before being applied to the skin surface to prevent water droplets from creating a steam burn on the skin. The brass rod was held at a vertical position on the skin for six seconds with all pressure being supplied by gravity in order to make a burn 8.5 mm diameter×0.8 mm deep. Immediately after burning, the roof of the burn blister was removed with a sterile spatula. The burn wounds were made approximately 2 cm from each other.
Approximately 90 burn wounds were made on the anterior two-thirds of the animal. The posterior third of the animal cannot be used because of anatomical differences in burn wound healing (a more rapid healing of burns has been observed at that position).
A total of seven animals were used and a total of fifteen wounds per treatment group were analyzed on each of days 7-12 after wounding. Treatments were coded to maintain blind study compliance. The burn wounds were treated with 25 ug of test article (enough to cover each wound). Treatments were allowed to penetrate into the sites for at least a 20 minute time period. Each treatment was applied within 20 minutes of blister removal and treatment occurred once a day for the first five days.
Beginning on day seven after wounding (day 0) and each day thereafter for four to six days, five burn wounds and the surrounding normal skin from each treatment area were excised using an electrokeratome. Any specimens that were not excised intact were discarded. The excised wounds and the surrounding normal skin were incubated in 0.5 M NaBr for 24 hours at 37° C. After incubation, the specimens were separated into epidermal and dermal sheets. The epidermis was examined macroscopically for defects in the area of the burn wounds. Epithelization was considered complete if no defect was present (healed). […] The epidermal sheet was placed on cardboard for a permanent record.
The number of wounds healed (completely epithelized) were divided by the total number of wounds sampled per day and multiplied by 100.

MAO-A = target: T1, MAO-A (Homo sapiens, UniProt P21397); settings: in comparison to selegiline, background statement; cited from earlier work
T1 sequence (P21397 1-527): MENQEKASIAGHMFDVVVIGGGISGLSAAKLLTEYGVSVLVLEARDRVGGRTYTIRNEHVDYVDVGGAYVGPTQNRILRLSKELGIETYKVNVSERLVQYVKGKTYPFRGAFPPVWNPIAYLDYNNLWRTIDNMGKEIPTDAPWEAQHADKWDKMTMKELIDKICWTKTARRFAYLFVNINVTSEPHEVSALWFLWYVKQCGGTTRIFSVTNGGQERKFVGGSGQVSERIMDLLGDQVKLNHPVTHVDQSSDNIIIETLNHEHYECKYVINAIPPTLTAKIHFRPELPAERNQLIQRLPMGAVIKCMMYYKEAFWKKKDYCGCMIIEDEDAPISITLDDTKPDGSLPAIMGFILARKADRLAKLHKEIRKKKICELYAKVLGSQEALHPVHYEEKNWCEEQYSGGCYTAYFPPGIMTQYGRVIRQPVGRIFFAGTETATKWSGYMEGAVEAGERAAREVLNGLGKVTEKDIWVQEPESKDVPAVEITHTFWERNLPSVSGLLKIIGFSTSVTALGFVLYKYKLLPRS

monoamine oxidase B = target: T2, monoamine oxidase B (Homo sapiens, UniProt P27338); settings: background statement; cited from earlier work
T2 sequence (P27338 1-520): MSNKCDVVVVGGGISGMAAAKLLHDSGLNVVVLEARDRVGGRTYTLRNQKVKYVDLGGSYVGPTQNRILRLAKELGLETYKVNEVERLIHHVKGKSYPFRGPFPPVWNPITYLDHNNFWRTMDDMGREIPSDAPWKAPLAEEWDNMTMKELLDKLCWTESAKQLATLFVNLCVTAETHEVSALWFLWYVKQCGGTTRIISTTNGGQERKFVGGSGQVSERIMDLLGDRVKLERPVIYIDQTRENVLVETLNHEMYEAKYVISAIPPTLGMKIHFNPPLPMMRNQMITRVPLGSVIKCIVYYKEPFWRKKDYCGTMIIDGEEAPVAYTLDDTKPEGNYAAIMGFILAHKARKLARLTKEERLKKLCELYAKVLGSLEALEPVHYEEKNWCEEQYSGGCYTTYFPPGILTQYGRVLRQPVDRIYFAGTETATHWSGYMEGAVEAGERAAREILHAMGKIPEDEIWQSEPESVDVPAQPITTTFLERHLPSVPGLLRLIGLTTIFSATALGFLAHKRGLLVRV

[2] = 10^-4M topical, day 7 after burning
[3] = 10^-4M topical, day 8 after burning
[4] = 10^-4M topical, day 9 after burning
[5] = 10^-4M topical, day 10 after burning
[6] = 10^-4M topical, day 11 after burning
[7] = 10^-4M topical, day 12 after burning
[8] = 10^-4M topical, day 13 after burning
[9] = 10^-6M topical, day 7 after burning
[10] = 10^-6M topical, day 8 after burning
[11] = 10^-6M topical, day 9 after burning
[12] = 10^-6M topical, day 10 after burning
[13] = 10^-8M topical, day 7 after burning
[14] = 10^-8M topical, day 8 after burning
[15] = 10^-8M topical, day 9 after burning
[16] = 10^-8M topical, day 10 after burning
[17] = 10^-8M topical, day 11 after burning
[18] = 10^-8M topical, day 12 after burning
[19] = 10^-8M topical, day 13 after burning

C#CCNC(C)Cc1ccccc1 (centres unmarked) [desmethylselegiline HCl, desmethylselegiline]
Percent of wounds completely epithelized [1, 2]: (0%)
number of wounds healed (completely epithelized) over the number of wounds assessed [1, 2]:  0/15
Percent of wounds completely epithelized [1, 3]: (0%)
number of wounds healed (completely epithelized) over the number of wounds assessed [1, 3]:  0/15
Percent of wounds completely epithelized [1, 4]: (0%)
number of wounds healed (completely epithelized) over the number of wounds assessed [1, 4]:  0/15
Percent of wounds completely epithelized [1, 5]: (0%)
number of wounds healed (completely epithelized) over the number of wounds assessed [1, 5]:  0/15
Percent of wounds completely epithelized [1, 6]: 7%
number of wounds healed (completely epithelized) over the number of wounds assessed [1, 6]:  1/15
Percent of wounds completely epithelized ([1]; 10^-4M topical, day 11 after burning, listed as B-1): (7%)
Percent of wounds completely epithelized [1, 7]: 33%
number of wounds healed (completely epithelized) over the number of wounds assessed [1, 7]:  5/15
Percent of wounds completely epithelized ([1]; 10^-4M topical, day 12 after burning, listed as B-1): (33%)
Percent of wounds completely epithelized [1, 8]: 69%
number of wounds healed (completely epithelized) over the number of wounds assessed [1, 8]: {fraction (11/16 )}
Percent of wounds completely epithelized ([1]; 10^-4M topical, day 13 after burning, listed as B-1): (69%)
time to complete epithelization compared with other treatment groups ([1]; 10^-6 M): completely epithelized sooner than all other treatment groups
Percent of wounds completely epithelized [1, 9]: (0%)
number of wounds healed (completely epithelized) over the number of wounds assessed [1, 9]:  0/15
Percent of wounds completely epithelized [1, 10]: (0%)
number of wounds healed (completely epithelized) over the number of wounds assessed [1, 10]:  0/15
Percent of wounds completely epithelized [1, 11]: (0%)
number of wounds healed (completely epithelized) over the number of wounds assessed [1, 11]:  0/15
Percent of wounds completely epithelized [1, 12]: (0%)
number of wounds healed (completely epithelized) over the number of wounds assessed [1, 12]:  0/15
number of wounds healed (completely epithelized) over the number of wounds assessed ([1]; 10^-6M topical, day 11 after burning):  5/15
number of wounds healed (completely epithelized) over the number of wounds assessed ([1]; 10^-6M topical, day 12 after burning):  7/15
number of wounds healed (completely epithelized) over the number of wounds assessed ([1]; 10^-6M topical, day 13 after burning):  6/16
Percent of wounds completely epithelized [1, 13]: (0%)
number of wounds healed (completely epithelized) over the number of wounds assessed [1, 13]:  0/15
Percent of wounds completely epithelized [1, 14]: (0%)
number of wounds healed (completely epithelized) over the number of wounds assessed [1, 14]:  0/15
Percent of wounds completely epithelized [1, 15]: (0%)
number of wounds healed (completely epithelized) over the number of wounds assessed [1, 15]:  0/15
Percent of wounds completely epithelized [1, 16]: (0%)
number of wounds healed (completely epithelized) over the number of wounds assessed [1, 16]:  0/15
Percent of wounds completely epithelized [1, 17]: 33%
number of wounds healed (completely epithelized) over the number of wounds assessed [1, 17]:  5/15
Percent of wounds completely epithelized ([1]; 10^-8M topical, day 11 after burning, listed as B-3): (33%)
Percent of wounds completely epithelized [1, 18]: 67%
number of wounds healed (completely epithelized) over the number of wounds assessed [1, 18]: {fraction (10/15 )}
Percent of wounds completely epithelized ([1]; 10^-8M topical, day 12 after burning, listed as B-3): (67%)
Percent of wounds completely epithelized [1, 19]: 67%
number of wounds healed (completely epithelized) over the number of wounds assessed [1, 19]: {fraction (40/15 )}
Percent of wounds completely epithelized ([1]; 10^-8M topical, day 13 after burning, listed as B-3): (67%)
percentage of wounds completely epithelized compared with other groups ([1]; day thirteen, all concentrations): higher percentage of wounds completely epithelized on day thirteen
wound crust colour during absorption of applied agent ([1]; first three days of treatment, normal again after 15 minutes): more pronounced
inhibition of MAO-A (MAO-A): decreased to an even greater extent
MAO-B inhibitory activity (monoamine oxidase B): reduced MAO-B inhibitory activity in comparison to selegiline
